Target: T1, NLRP3 (Homo sapiens, UniProt Q96P20)
T1 construct: host or cells: THP-1 cells, PMA-differentiated
Experiment: Measurement of IL-1β production in PMA-differentiated THP-1 cells (NLRP3 hIL1B)
Type: cell-based
Conditions: one or more of the described procedures
Experimental: Measurement of IL-1β Production in PMA-Differentiated THP-1 Cells
THP-1 cells were purchased from the American Type Culture Collection and sub-cultured according to instructions from the supplier. Prior to experiments, cells were cultured in RPMI 1640 containing 10% heat inactivated FBS, penicillin (100 units/ml) and streptomycin (100 μg/ml), and maintained in log phase prior to experimental setup. Prior to the experiment THP-1 were treated with PMA (Phorbol 12-myristate 13-acetate) (10 μg/ml) for 24 hours. The day of the experiment the media was removed and attaching cells were treated with trypsin for 2 minutes, cells were then collected, washed with PBS (phosphate buffer saline), spin down, resuspended in 2% heat inactivated FBS with RPMI at a concentration of 1×10^6 cells/ml, and 100 μl was plated in a 96 well plate. Compounds were dissolved in dimethyl sulfoxide (DMSO) and added to the culture medium to achieve desired concentration (e.g. 100, 30, 10, 3, 1, 0.3 or 0.1 μM). Cells were incubated with compounds for 4 hours. Cell free supernatant was collected and the production of IL-1β was evaluated by ELISA. A vehicle only control was run concurrently with each experiment. Final DMSO concentration was 1%.
Measurement of IL-1β Production in PMA-Differentiated THP-1 Cells (Alternative Procedure)
THP-1 cells were purchased from the American Type Culture Collection and sub-cultured according to instructions from the supplier. Prior to experiments, cells were cultured in RPMI 1640 containing 10% heat inactivated FBS, penicillin (100 units/ml), streptomycin (100 μg/ml), HEPES (10 mM) and sodium pyruvate (1 mM) and maintained in log phase prior to experimental setup. Prior to the experiment, THP-1 cells were treated with PMA (Phorbol 12-myristate 13-acetate) (20 μg/ml) overnight. The day of the experiment, the media was removed and attached cells were treated with trypsin for 2 minutes, cells were then collected, washed with PBS (phosphate buffer saline), pelleted by centrifugation and resuspended in 2% heat inactivated FBS with RPMI at a concentration of 50,000 cells/well in a 384 well plate. Cell free supernatant was collected and the production of IL-1β was evaluated by ELISA. Compounds were dissolved in dimethyl sulfoxide (DMSO) and added to the culture medium to achieve desired concentration (e.g. 100, 30, 10, 3, 1, 0.3 or 0.1 μM). Cells were incubated with compounds for 2 hours. A vehicle only control was run concurrently with each experiment. Final DMSO concentration was 1%.
Measurement of IL-1β Production—hTRF Protocol (Second Alternative Procedure)
Serial dilutions of compounds in DMSO were added to low volume 384 well plates at 100 nl/well using an ECHO 550 acoustic dispenser (Labcyte) to achieve final starting concentration of 10 μM in assay.
THP-1 cells in RPMI (Gibco, 11875) media with 10% FBS at a density of 1×10^6 cell/ml in a T175 flask were treated with a final concentration of phorbol 12-myristate 13-acetate (PMA) (Sigma, PI585) of 50 ng/ml overnight at 37° C. at 5% CO2 for differentiation. Cells were harvested the next day after rinsing well wth dPBS using 0.5% trypsin. A cell solution was prepared of 1×10^6 cells/ml for 50,000 cells in 50 μl/well in RPMI media with 2% FBS. Cells were plated using a multichannel pipette onto the compound dilutions in Greiner, 384 well, black clear bottom tissue culture treated plates (781090). The plates were incubated in 37° C. incubator at 5% CO2 for 2 hours.
After the 2 hour incubation, the cell plates were spun in the centrifuge for 5 minutes at 1200 rpm. Using the Felix (CyBio), 8 μl of the supernatant was transferred to 384 well, low volume, white proxy plates. (Perkin Elmer, 6008230). A human ILlbeta hTRF kit was used to analyze the supernatant (CISBIO, 62HIL1BPEG). The kit instructions were followed for preparing the IL1Beta standard curve and then the antibodies from the kit were diluted 1:40 rather than 1:20 as kit instructed. […]

T1 sequence (Q96P20 whole entry): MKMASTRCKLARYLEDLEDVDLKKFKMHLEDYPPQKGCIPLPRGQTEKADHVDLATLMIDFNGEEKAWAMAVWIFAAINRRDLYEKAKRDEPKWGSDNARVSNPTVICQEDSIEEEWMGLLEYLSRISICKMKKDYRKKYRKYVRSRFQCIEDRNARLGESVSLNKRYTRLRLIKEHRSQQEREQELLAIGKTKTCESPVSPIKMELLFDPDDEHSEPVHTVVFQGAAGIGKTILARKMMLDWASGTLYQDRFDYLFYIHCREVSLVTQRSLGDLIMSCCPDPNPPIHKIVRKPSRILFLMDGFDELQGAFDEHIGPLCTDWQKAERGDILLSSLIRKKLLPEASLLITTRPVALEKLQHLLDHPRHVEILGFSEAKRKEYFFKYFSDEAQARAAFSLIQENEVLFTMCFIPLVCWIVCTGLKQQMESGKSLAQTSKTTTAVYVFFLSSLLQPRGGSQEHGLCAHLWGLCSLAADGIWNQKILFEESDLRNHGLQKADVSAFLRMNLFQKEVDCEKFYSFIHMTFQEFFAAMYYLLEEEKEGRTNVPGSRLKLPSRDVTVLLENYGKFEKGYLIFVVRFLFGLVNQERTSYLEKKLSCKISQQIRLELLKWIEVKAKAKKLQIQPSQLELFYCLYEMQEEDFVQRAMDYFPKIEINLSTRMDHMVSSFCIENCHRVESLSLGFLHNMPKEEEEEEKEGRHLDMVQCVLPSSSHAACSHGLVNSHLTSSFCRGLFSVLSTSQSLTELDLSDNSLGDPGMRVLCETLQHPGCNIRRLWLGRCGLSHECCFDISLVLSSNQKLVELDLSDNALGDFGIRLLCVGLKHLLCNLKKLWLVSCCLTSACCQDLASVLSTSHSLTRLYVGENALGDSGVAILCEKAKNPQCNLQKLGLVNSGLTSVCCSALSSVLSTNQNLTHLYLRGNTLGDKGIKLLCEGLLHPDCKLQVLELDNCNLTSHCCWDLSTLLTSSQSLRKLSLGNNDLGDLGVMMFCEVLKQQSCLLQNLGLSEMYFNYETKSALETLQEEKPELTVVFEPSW

Compound	IC50
Nc1nc2cc(-c3cc[nH]n3)ccc2c2c1nc(CCNC(=O)c1ccc(F)cn1)n2C1CCC1 [Example 1, N-{2-[4-amino-1-cyclobutyl-7-(1H-pyrazol-5-yl)-1H-imidazo[4,5-c]quinolin-2-yl]ethyl}-5-fluoropyridine-2-carboxamide]	120 nM
CC(C)n1c(CCNC(=O)c2ccccn2)nc2c(N)nc3cc(-c4cc[nH]n4)ccc3c21 [Example 2]	70 nM
Nc1nc2cc(-c3cc[nH]n3)ccc2c2c1nc(CCNC(=O)c1ccccn1)n2CC(F)F [Example 3]	220 nM
Nc1nc2cc(-c3cc[nH]n3)ccc2c2c1nc(CCNC(=O)c1ccc(F)cn1)n2CC(F)F [Example 4]	340 nM
Nc1nc2cc(-c3cc[nH]n3)ccc2c2c1nc(CCNC(=O)c1ccccn1)n2C1CC1 [Example 5]	440 nM
Nc1nc2cc(-c3cc[nH]n3)ccc2c2c1nc(CCNC(=O)c1ccccn1)n2C1CCC1 [Example 6]	410 nM
COc1ccc(C(=O)NCCc2nc3c(N)nc4cc(-c5cc[nH]n5)ccc4c3n2C2CCC2)nc1 [Example 7]	180 nM
Nc1nc2cc(-c3cc[nH]n3)ccc2c2c1nc(CCNC(=O)c1ccc(F)cn1)n2C1CC1 [Example 8]	270 nM
CC(C)n1c(CCNC(=O)c2ccc(F)cn2)nc2c(N)nc3cc(-c4cc[nH]n4)ccc3c21 [Example 9]	120 nM
CC(C)n1c(CCNC(=O)c2csc(Cl)n2)nc2c(N)nc3cc(-c4cc[nH]n4)ccc3c21 [Example 10]	160 nM
Nc1nc2cc(-c3cc[nH]n3)ccc2c2c1nc(CCNC(=O)c1csc(Cl)n1)n2CC(F)F [Example 11]	590 nM
COc1ccc(C(=O)NCCc2nc3c(N)nc4cc(-c5cc[nH]n5)ccc4c3n2C(C)C)nc1 [Example 12]	270 nM
COc1ccc(C(=O)NCCc2nc3c(N)nc4cc(-c5cc[nH]n5)ccc4c3n2C2CC2)nc1 [Example 13]	1240 nM
CC(C)n1c(CNC(=O)c2ccccn2)nc2c(N)nc3cc(-c4cc[nH]n4)ccc3c21 [Example 14]	240 nM
CC(C)n1c(CNC(=O)C2CCCCO2)nc2c(N)nc3cc(-c4cc[nH]n4)ccc3c21 (centres unmarked) [Example 15]	270 nM
CC(C)n1c(CNC(=O)C2CCCO2)nc2c(N)nc3cc(-c4cc[nH]n4)ccc3c21 (centres unmarked) [Example 16]	220 nM
Nc1nc2cc(-c3cc[nH]n3)ccc2c2c1nc(CCNC(=O)C1CCCCO1)n2CC(F)F (centres unmarked) [Example 17]	1320 nM
CC(C)n1c(CCNC(=O)C2CCCO2)nc2c(N)nc3cc(-c4cc[nH]n4)ccc3c21 (centres unmarked) [Example 18]	1940 nM
Nc1nc2cc(-c3cc[nH]n3)ccc2c2c1nc(CNC(=O)C1CCCCO1)n2CC(F)F (centres unmarked) [Example 19]	790 nM
Nc1nc2cc(-c3cc[nH]n3)ccc2c2c1nc(CNC(=O)C1CCCO1)n2CC(F)F (centres unmarked) [Example 20]	1880 nM

Target: T2, human TLR7 (Homo sapiens, UniProt Q9NYK1)
T2 construct: host or cells: human HEK-Blue cells
T2 sequence (Q9NYK1 27-1049): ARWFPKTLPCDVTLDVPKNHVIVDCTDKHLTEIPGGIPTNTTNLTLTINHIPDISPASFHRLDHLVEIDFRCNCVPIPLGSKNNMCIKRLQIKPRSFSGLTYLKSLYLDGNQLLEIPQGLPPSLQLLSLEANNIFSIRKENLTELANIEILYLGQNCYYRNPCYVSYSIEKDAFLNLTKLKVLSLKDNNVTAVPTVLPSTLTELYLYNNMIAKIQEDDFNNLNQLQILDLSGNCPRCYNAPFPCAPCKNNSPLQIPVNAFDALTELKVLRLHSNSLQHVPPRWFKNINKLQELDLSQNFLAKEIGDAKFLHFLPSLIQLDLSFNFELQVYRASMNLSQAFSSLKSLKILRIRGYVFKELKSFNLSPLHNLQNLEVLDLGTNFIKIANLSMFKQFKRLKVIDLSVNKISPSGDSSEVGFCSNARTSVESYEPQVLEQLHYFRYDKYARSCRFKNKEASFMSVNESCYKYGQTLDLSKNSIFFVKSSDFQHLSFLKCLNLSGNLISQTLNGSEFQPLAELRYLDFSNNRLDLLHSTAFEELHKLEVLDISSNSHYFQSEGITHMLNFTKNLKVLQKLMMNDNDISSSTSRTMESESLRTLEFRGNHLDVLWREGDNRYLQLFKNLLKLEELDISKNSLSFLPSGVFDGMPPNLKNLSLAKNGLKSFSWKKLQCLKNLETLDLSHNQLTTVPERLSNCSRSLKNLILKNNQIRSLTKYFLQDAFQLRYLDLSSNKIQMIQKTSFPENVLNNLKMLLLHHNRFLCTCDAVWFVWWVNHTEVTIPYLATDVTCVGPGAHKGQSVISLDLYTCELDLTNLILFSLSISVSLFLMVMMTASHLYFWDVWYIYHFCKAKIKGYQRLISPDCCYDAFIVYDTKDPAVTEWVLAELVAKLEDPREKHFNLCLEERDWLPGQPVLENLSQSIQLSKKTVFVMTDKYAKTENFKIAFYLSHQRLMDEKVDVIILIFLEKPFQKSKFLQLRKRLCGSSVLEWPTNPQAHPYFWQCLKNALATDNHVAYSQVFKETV
Experiment: In vitro human TLR7 reporter assay (HEK-Blue, NF-kB/AP1-inducible SEAP)
Type: cell-based
Conditions: HEK-Blue cells co-expressing TLR7 and SEAP reporter, 18 h; read-out: TLR7 agonist EC50
Experimental: (§1) In Vitro Human TLR7 and TLR8 Binding Reporter Assays
(§2) Logarithmically-growing human HEK-Blue cells co-expressing a TLR7 or TLR8 gene and a NF-kB/AP1-inducible SEAP (secreted embryonic alkaline phosphatase; Invivogen, San Diego, CA) reporter gene are added to individual wells of a 384-well plate (15,000 cells per 20 μL per well) and maintained for 24 h at 37° C. 5% CO2. Test compounds or DMSO are distributed to separate wells the next day using acoustic liquid handling technology (100 nL per well) and cells are subsequently incubated for 18 h at 37° C. 5% CO2. Cellular SEAP production is measured using an Envision plate reader instrument thirty minutes after adding freshly-made Quanti-Blue reagent (prepared by following manufacturer instructions; Invivogen, San Diego, CA) to the HEK-Blue TLR Nf-kB-SEAP cell reactions. All EC50 values (half-maximal effective concentration) are determined using proprietary data analysis software. Normalized EC50 value=absolute value determined by setting 100% Ymax using a reference standard RLU (relative light unit) values from cells treated with 50 μM of the reference standard.

Compound	EC50
Nc1nc2cc(-c3cc[nH]n3)ccc2c2c1nc(CNC(=O)C1CCCCO1)n2CC(F)F (centres unmarked) [Example 19]	20000 to 100000 nM

Target: T3, human TLR8 (Homo sapiens, UniProt Q9NR97)
T3 construct: host or cells: human HEK-Blue cells
T3 sequence (Q9NR97 27-1041): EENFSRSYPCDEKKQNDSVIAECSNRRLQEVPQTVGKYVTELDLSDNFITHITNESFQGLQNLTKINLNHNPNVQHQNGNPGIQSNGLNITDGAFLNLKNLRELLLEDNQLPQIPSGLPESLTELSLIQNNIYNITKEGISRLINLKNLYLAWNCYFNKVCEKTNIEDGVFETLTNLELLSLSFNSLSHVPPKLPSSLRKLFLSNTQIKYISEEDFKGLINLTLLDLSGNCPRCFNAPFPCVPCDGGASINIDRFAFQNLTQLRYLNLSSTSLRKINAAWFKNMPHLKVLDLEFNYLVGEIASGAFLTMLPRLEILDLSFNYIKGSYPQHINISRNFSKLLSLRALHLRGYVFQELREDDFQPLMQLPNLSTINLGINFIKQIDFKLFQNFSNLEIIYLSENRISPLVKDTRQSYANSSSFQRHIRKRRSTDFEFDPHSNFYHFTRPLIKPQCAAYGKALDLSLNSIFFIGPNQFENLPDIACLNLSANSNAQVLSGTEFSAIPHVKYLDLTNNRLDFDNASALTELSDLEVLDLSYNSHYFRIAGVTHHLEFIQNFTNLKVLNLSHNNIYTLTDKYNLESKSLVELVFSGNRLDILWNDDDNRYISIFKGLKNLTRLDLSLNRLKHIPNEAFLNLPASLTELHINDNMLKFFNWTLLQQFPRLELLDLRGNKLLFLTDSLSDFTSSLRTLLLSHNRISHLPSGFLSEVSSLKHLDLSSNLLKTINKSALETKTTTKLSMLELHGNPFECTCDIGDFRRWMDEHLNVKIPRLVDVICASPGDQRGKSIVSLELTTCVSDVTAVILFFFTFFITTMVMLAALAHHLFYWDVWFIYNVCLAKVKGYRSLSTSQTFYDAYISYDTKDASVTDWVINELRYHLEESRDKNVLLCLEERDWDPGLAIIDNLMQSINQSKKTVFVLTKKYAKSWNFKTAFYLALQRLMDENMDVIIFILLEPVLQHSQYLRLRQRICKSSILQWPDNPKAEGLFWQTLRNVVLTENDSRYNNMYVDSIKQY
Experiment: In vitro human TLR8 reporter assay (HEK-Blue, NF-kB/AP1-inducible SEAP)
Type: cell-based
Conditions: HEK-Blue cells co-expressing TLR8 and SEAP reporter, 18 h; read-out: TLR8 agonist EC50
Experimental: as §1, §2

Compound	EC50
CC(C)n1c(CNC(=O)c2ccccn2)nc2c(N)nc3cc(-c4cc[nH]n4)ccc3c21 [Example 14]	20000 to 100000 nM
Nc1nc2cc(-c3cc[nH]n3)ccc2c2c1nc(CNC(=O)C1CCCCO1)n2CC(F)F (centres unmarked) [Example 19]	20000 to 100000 nM

From patent publication US12024513B2, “NLRP3 modulators” (INNATE TUMOR IMMUNITY, INC., priority 2018, dated 2024)
